Measurements reported in US8883792B2, “Substituted isoquinoline derivative” (D. Western Therapeutics Institute, Inc., priority 2010, dated 2014).
Counter-ions that a name gives are not always drawn.

System: rabbits (New Zealand White)
Experiment: Ocular hypotensive effect in rabbits
Type: in vivo, rabbit
Settings: male New Zealand White rabbits, 0.04 mL eye drop, concentration of 1% (w/v) or lower, maximum ocular hypotensive rate vs vehicle-treated contralateral eye
Description: The compound of the present invention was administered to rabbits (New Zealand White, sex: male, 3 to 6 per group) and evaluated for its ocular hypotensive effect.
Each test compound was dissolved in a vehicle 1 (1.04 g of sodium dihydrogen phosphate dihydrate and 0.5 g of sodium chloride dissolved in purified water and then adjusted to pH 7.0 with sodium hydroxide to make the total amount to 100 mL) or a vehicle 2 (2% (w/v) aqueous boric acid solution) to prepare a test compound solution with a predetermined concentration.
The intraocular pressures of the rabbits were measured using Tiolat TonoVet handheld tonometer immediately before administration of test compound. The test compound solution and the vehicle were dropped at a volume of 0.04 mL to one eye and the contralateral eye, respectively, and the intraocular pressures were measured over time in the same way as above. The rate of the intraocular pressure of the eye receiving the test compound solution to that of the eye receiving the vehicle was calculated as an ocular hypotensive rate.

Row | SMILES | Ocular hypotensive activity
1 | C[C@H](CC(N)CCc1ccccc1)NS(=O)(=O)c1ccc2cnccc2c1 (single isomer, unassigned; diastereomer a) [Example 118] | ++ (maximum ocular hypotensive rate of 15% or more)
2 | C[C@H](CC(N)CCc1ccccc1)NS(=O)(=O)c1ccc2cnccc2c1 (single isomer, unassigned; diastereomer b) [Example 119] | ++ (maximum ocular hypotensive rate of 15% or more)
3 | C[C@H](CNCc1ccccc1)NS(=O)(=O)c1ccc2cnccc2c1 [Example 1, (R)—N-{1-(benzylamino)propan-2-yl}isoquinoline-6-sulfonamide dihydrochloride] | ++ (maximum ocular hypotensive rate of 15% or more)
4 | CNC[C@@H](C)NS(=O)(=O)c1ccc2cnccc2c1 [Example 2, (R)—N-{1-(methylamino)propan-2-yl}isoquinoline-6-sulfonamide dihydrochloride] | ++ (maximum ocular hypotensive rate of 15% or more)
5 | CCNC[C@@H](C)NS(=O)(=O)c1ccc2cnccc2c1 [Example 3, (R)—N-{1-(ethylamino)propan-2-yl}isoquinoline-6-sulfonamide dihydrochloride] | ++ (maximum ocular hypotensive rate of 15% or more)
6 | CCCNC[C@@H](C)NS(=O)(=O)c1ccc2cnccc2c1 [Example 4, (R)—N-{1-(propylamino)propan-2-yl}isoquinoline-6-sulfonamide dihydrochloride] | ++ (maximum ocular hypotensive rate of 15% or more)
7 | CCCCNC[C@H](C)NS(=O)(=O)c1ccc2cnccc2c1 [Example 6, (S)—N-{1-(butylamino)propan-2-yl}isoquinoline-6-sulfonamide dihydrochloride] | ++ (maximum ocular hypotensive rate of 15% or more)
8 | CC=CCNC[C@@H](C)NS(=O)(=O)c1ccc2cnccc2c1 [Example 7, (R)—N-{1-(but-2-enylamino)propan-2-yl}isoquinoline-6-sulfonamide dihydrochloride] | ++ (maximum ocular hypotensive rate of 15% or more)
9 | CC=CCNC[C@H](C)NS(=O)(=O)c1ccc2cnccc2c1 [Example 8, (S)—N-{1-(but-2-enylamino)propan-2-yl}isoquinoline-6-sulfonamide dihydrochloride] | ++ (maximum ocular hypotensive rate of 15% or more)
10 | C=CCNC[C@@H](C)NS(=O)(=O)c1ccc2cnccc2c1 [Example 9, (R)—N-{1-(allylamino)propan-2-yl}isoquinoline-6-sulfonamide dihydrochloride] | ++ (maximum ocular hypotensive rate of 15% or more)
11 | C=CCNCCNS(=O)(=O)c1ccc2cnccc2c1 [Example 10, N-{2-(allylamino)ethyl}isoquinoline-6-sulfonamide dihydrochloride] | ++ (maximum ocular hypotensive rate of 15% or more)
12 | CCCCN[C@H](C)CNS(=O)(=O)c1ccc2cnccc2c1 [Example 11, (R)—N-{2-(butylamino)propyl}isoquinoline-6-sulfonamide dihydrochloride] | + (maximum ocular hypotensive rate of 5% or more and less than 15%)
13 | CCCNCC[C@@H](C)NS(=O)(=O)c1ccc2cnccc2c1 [Example 12, (R)—N-{4-(propylamino)butan-2-yl}isoquinoline-6-sulfonamide dihydrochloride] | ++ (maximum ocular hypotensive rate of 15% or more)
14 | C[C@H](CN1CCNCC1)NS(=O)(=O)c1ccc2cnccc2c1 [Example 13, (R)—N-{1-(piperazin-1-yl)propan-2-yl}isoquinoline-6-sulfonamide trihydrochloride] | + (maximum ocular hypotensive rate of 5% or more and less than 15%)
15 | CC(C)CNC[C@@H](C)NS(=O)(=O)c1ccc2cnccc2c1 [Example 14, (R)—N-{1-(isobutylamino)propan-2-yl}isoquinoline-6-sulfonamide dihydrochloride] | ++ (maximum ocular hypotensive rate of 15% or more)
16 | C[C@H](CNC1CC1)NS(=O)(=O)c1ccc2cnccc2c1 [Example 15, (R)—N-{1-(cyclopropylamino)propan-2-yl}isoquinoline-6-sulfonamide dihydrochloride] | ++ (maximum ocular hypotensive rate of 15% or more)
17 | C[C@H](CNCC1CCC1)NS(=O)(=O)c1ccc2cnccc2c1.Cl [Example 16, (R)—N-{1-(cyclobutylmethylamino)propan-2-yl}isoquinoline-6-sulfonamide hydrochloride] | ++ (maximum ocular hypotensive rate of 15% or more)

Row | SMILES | Ocular hypotensive activity
18 | C[C@H](CNCC(C)(C)C)NS(=O)(=O)c1ccc2cnccc2c1 [Example 17, (R)—N-{1-(neopentylamino)propan-2-yl}isoquinoline-6-sulfonamide dihydrochloride] | ++ (maximum ocular hypotensive rate of 15% or more)
19 | C[C@H](CNCC1CC1)NS(=O)(=O)c1ccc2cnccc2c1 [Example 18, (R)—N-{1-(cyclopropylmethylamino)propan-2-yl}isoquinoline-6-sulfonamide dihydrochloride] | ++ (maximum ocular hypotensive rate of 15% or more)
20 | CCCCCNC[C@@H](C)NS(=O)(=O)c1ccc2cnccc2c1 [Example 19, (R)—N-{1-(pentylamino)propan-2-yl}isoquinoline-6-sulfonamide dihydrochloride] | ++ (maximum ocular hypotensive rate of 15% or more)
21 | CCC(C)CNC[C@@H](C)NS(=O)(=O)c1ccc2cnccc2c1 (stereo partly drawn) [Example 20, N-(2R)-{1-(methylbutylamino)propan-2-yl}isoquinoline-6-sulfonamide hydrochloride] | ++ (maximum ocular hypotensive rate of 15% or more)
22 | CC(C)CCNC[C@@H](C)NS(=O)(=O)c1ccc2cnccc2c1.Cl [Example 21, (R)—N-{1-(isopentylamino)propan-2-yl}isoquinoline-6-sulfonamide hydrochloride] | + (maximum ocular hypotensive rate of 5% or more and less than 15%)
23 | CCCCCCNC[C@@H](C)NS(=O)(=O)c1ccc2cnccc2c1 [Example 22, (R)—N-{1-(hexylamino)propan-2-yl}isoquinoline-6-sulfonamide dihydrochloride] | ++ (maximum ocular hypotensive rate of 15% or more)
24 | C[C@@H](CNCCc1ccccc1)NS(=O)(=O)c1ccc2cnccc2c1 [Example 24, (S)—N-{1-(phenethylamino)propan-2-yl}isoquinoline-6-sulfonamide dihydrochloride] | ++ (maximum ocular hypotensive rate of 15% or more)
25 | C[C@H](CNC[C@@H](C)c1ccccc1)NS(=O)(=O)c1ccc2cnccc2c1 [Example 26, N—[(R)-1-{(S)-2-phenylpropylamino}propan-2-yl]isoquinoline-6-sulfonamide dihydrochloride] | ++ (maximum ocular hypotensive rate of 15% or more)
26 | CC(C)[C@H](CNCCc1ccccc1)NS(=O)(=O)c1ccc2cnccc2c1 [Example 27, (R)—N-{3-methyl-1-(phenethylamino)butan-2-yl}isoquinoline-6-sulfonamide dihydrochloride] | ++ (maximum ocular hypotensive rate of 15% or more)
27 | COc1ccccc1CCNC[C@@H](C)NS(=O)(=O)c1ccc2cnccc2c1 [Example 28, (R)—N-{1-(2-methoxyphenethylamino)propan-2-yl}isoquinoline-6-sulfonamide dihydrochloride] | ++ (maximum ocular hypotensive rate of 15% or more)
28 | COc1cccc(CCNC[C@@H](C)NS(=O)(=O)c2ccc3cnccc3c2)c1 [Example 29, (R)—N-{1-(3-methoxyphenethylamino)propan-2-yl}isoquinoline-6-sulfonamide dihydrochloride] | ++ (maximum ocular hypotensive rate of 15% or more)
29 | COc1ccc(CCNC[C@@H](C)NS(=O)(=O)c2ccc3cnccc3c2)cc1 [Example 30, (R)—N-{1-(4-methoxyphenethylamino)propan-2-yl}isoquinoline-6-sulfonamide dihydrochloride] | ++ (maximum ocular hypotensive rate of 15% or more)
30 | C[C@H](CNCCc1ccccc1F)NS(=O)(=O)c1ccc2cnccc2c1 [Example 31, (R)—N-{1-(2-fluorophenethylamino)propan-2-yl}isoquinoline-6-sulfonamide dihydrochloride] | ++ (maximum ocular hypotensive rate of 15% or more)
31 | Cl.O=S(=O)(NCCNCCc1ccccc1)c1ccc2cnccc2c1 [Example 32, N-{2-(phenethylamino)ethyl}isoquinoline-6-sulfonamide hydrochloride] | ++ (maximum ocular hypotensive rate of 15% or more)
32 | C[C@H](CNCCC1CCCCC1)NS(=O)(=O)c1ccc2cnccc2c1 [Example 33, (R)—N-{1-(2-cyclohexylethylamino)propan-2-yl}isoquinoline-6-sulfonamide dihydrochloride] | ++ (maximum ocular hypotensive rate of 15% or more)
33 | C[C@H](CNCCCc1ccccc1)NS(=O)(=O)c1ccc2cnccc2c1 [Example 34, (R)—N-{1-(3-phenylpropylamino)propan-2-yl}isoquinoline-6-sulfonamide dihydrochloride] | ++ (maximum ocular hypotensive rate of 15% or more)
34 | C[C@@H](CNCCc1c[nH]c2ccccc12)NS(=O)(=O)c1ccc2cnccc2c1.Cl [Example 37, (S)—N-[1-{2-(1H-indol-3-yl)ethylamino}propan-2-yl]isoquinoline-6-sulfonamide hydrochloride] | ++ (maximum ocular hypotensive rate of 15% or more)
